Data on nine molecules can be found in patent US20080003214A1, “Medicaments Comprising Carbonyl Compounds, And The Use Thereof” (priority 2004, published 2008).

A word on the IC50: it is the concentration that gives 50% inhibition. Broadly, the melting point is the temperature, or range, at which the solid turns liquid.

Sequence of factor Xa (P00742 235-488 limits assumed): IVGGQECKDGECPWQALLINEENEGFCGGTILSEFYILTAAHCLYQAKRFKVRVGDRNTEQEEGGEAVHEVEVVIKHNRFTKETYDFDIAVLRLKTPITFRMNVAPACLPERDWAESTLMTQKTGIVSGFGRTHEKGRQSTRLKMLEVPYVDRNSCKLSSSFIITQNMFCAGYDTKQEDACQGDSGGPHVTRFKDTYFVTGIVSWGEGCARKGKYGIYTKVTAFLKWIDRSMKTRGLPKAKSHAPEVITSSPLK
Sequence of factor Xa (P00742 41-179 partner limits assumed): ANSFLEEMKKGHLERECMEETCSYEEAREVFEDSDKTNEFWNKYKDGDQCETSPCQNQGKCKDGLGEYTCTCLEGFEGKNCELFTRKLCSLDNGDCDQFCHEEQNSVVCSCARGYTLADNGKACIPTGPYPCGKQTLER

The target of one data set is factor Xa (Homo sapiens, UniProt P00742). Briefly: Inhibition of factor Xa (FXa-IC50). Type of data set: biochemical. The conditions noted are these: Table 1, headed 'Affinity to receptors'; read-out: FXa-IC50. An excerpt:
The inhibition of factor Xa by the compounds according to the invention and the measurement of the anticoagulant and antithrombotic activity can be determined by conventional in-vitro or in-vivo methods. A suitable method is described, for example, by J. Hauptmann et al. in Thrombosis and Haemostasis 1990, 63, 220-223.
The inhibition of factor Xa can be measured, for example by the method of T. Hara et al. in Thromb. Haemostas. 1994, 71, 314-319.
For the molecule `O=C(Nc1ccc(N2CCOCC2=O)cc1)[C@H]1CCCN1C(=O)c1ccc(Cl)s1` [AB1], the IC50 was found to be 1800 nM.

As for `O=C(Nc1ccc(N2CCOCC2=O)cc1)[C@H]1CCCN1C(=O)Nc1ccc(Cl)cc1` [Compound A1, 1-N-[(4-chlorophenyl)]-2-N-{[4-(3-oxomorpholin-4-yl)phenyl]}-(R)-pyrrolidine-1,2-dicarboxamide], the IC50 came to 18 nM.

Take `O=C(Nc1ccc(-n2ccccc2=O)cc1)[C@H]1C[C@@H](O)CN1C(=O)Nc1ccc(Cl)cn1` [Compound A6, 1-N-[(5-chloropyridin-2-yl)]-2-N-{[4-(2-oxo-2H-pyridin-1-yl)phenyl]}-(2R,4R)-4-hydroxypyrrolidine-1,2-dicarboxamide]: the IC50 stood at 3.7 nM.

Staying with this data set, now noted: read-out: IC50(Xa).
Take `CCO[C@@H]1C[C@H](C(=O)Nc2ccc(-n3nc(C)sc3=N)cc2)N(C(=O)Nc2ccc(Cl)cc2)C1` [1-N-[(4-chlorophenyl)]-2-N-{[4-(2-imino-5-methyl-1,3,4-thiadiazol-3-yl)phenyl]}-(2R,4R)-4-ethoxypyrrolidine-1,2-dicarboxamide]: the IC50 was 4.8 nM.

As for `Cc1nn(-c2ccc(NC(=O)[C@H]3C[C@@H](OC(C)C)CN3C(=O)Nc3ccc(Cl)cc3)cc2)c(=N)s1` [1-N-[(4-chlorophenyl)]-2-N-{[4-(2-imino-5-methyl-1,3,4-thiadiazol-3-yl)phenyl]}-(2R,4R)-4-isopropoxypyrrolidine-1,2-dicarboxamide], the IC50 turned out to be 3 nM.

With `CO[C@@H]1C[C@H](C(=O)Nc2ccc(-n3nc(C)sc3=N)cc2)N(C(=O)Nc2ccc(Cl)cc2)C1` [1-N-[(4-chlorophenyl)]-2-N-{[4-(2-imino-5-methyl-1,3,4-thiadiazol-3-yl)phenyl]}-(2R,4R)-4-methoxypyrrolidine-1,2-dicarboxamide], the IC50 is 6.1 nM.

As for `Nc1ccc(O[C@H]2C[C@H](C(=O)Nc3ccc(N4CCOCC4=O)cc3)N(C(=O)Nc3ccc(Cl)cc3)C2)cc1` [Example 13-16, 1-N-[(4-chlorophenyl)]-2-N-{[4-(3-oxomorpholin-4-yl)phenyl]}-(2R,4S)-4-(4-aminophenoxy)pyrrolidine-1,2-dicarboxamide], the IC50 is 25 nM.

For the molecule `O=C(Nc1ccc(N2CCOCC2=O)cc1)[C@H]1C[C@@H](OCC(F)(F)F)CN1C(=O)Nc1ccc(Cl)cc1` [Example 13-18, 1-N-[(4-chlorophenyl)]-2-N-{[4-(3-oxomorpholin-4-yl)phenyl]}-(2R,4R)-4-(2,2,2-trifluoroethoxy)pyrrolidine-1,2-dicarboxamide], the IC50 worked out at 9.7 nM.

System in another data set: not given
Assay: not given
Conditions: not given
`[N-]=[N+]=N[C@H]1C[C@H](C(=O)Nc2ccc(N3CCOCC3=O)cc2)N(C(=O)Nc2ccc(Cl)cc2)C1` [Compound A9, 1-N-[(4-chlorophenyl)]-2-N-{[4-(3-oxomorpholin-4-yl)phenyl]}-(2R,4S)-4-azidopyrrolidine-1,2-dicarboxamide] showed a melting point of 145 °C.
